The source of these data is patent publication US20250002470A1, “NITROGEN-CONTAINING COMPOUND, PREPARATION METHOD THEREFOR AND APPLICATION THEREOF” (ZHEJIANG AIXPLORER BIOTECH CO., LTD., priority 2021, published 2025).

One data set concerns the target hERG potassium channel (Homo sapiens, UniProt Q12809). Put plainly: Whole-cell patch-clamp (QPatch) of hERG current in HEK293 cells stably expressing hERG. It is filed as cell-based. The method, then:
In this study, a whole-cell patch-clamp technique was used to study the inhibitory effect of compounds on hERG potassium channels and to evaluate the risk of ventricular repolarization toxicity.
The HEK293 cell line stably expressing the hERG potassium channel cells was purchased from Creacell, Inc. (Cat. No. A-0320).
The HEK293 cell line that can stably express the hERG potassium channel, was cultured in DMEM medium containing 10% fetal bovine serum and 0.8 mg/mL G418 at 37° C. and 5% carbon dioxide.
Before the test, the cells were separated with TrypLET Express, centrifuged after adding medium to terminate digestion, resuspended the cell count, adjusted the cell density to 2-3×10^6 cells/mL, and then lightly mixed the cells on a room temperature equilibration shaker for 15-20 min.
Electrophysiological assays were performed using a fully automated patch-clamp QPatch 48 X (Sophion) device. The prepared cells were placed on a centrifuge on the Qpatch bench, the cells were washed using multiple centrifugation/suspension methods, and the cell culture medium was replaced with extracellular fluid. Remove an MTP-96 plate and place it in the location of the MTP source. Remove the QPlate chip and subsequently place the QPlate at the Qplate source location. The robotic arm scans the MTP-96 board and the QPlate chip barcode and grabs it to the measuring station. Draw the intracellular and external fluid from the liquid pool and add them to the intracellular fluid pool, cell and test cell pool of the QPlate chip, respectively. At the measuring station, all measuring sites on the QPlate undergo initial quality control. The quality control process includes aspirating the cell suspension from the cell vessel of the centrifuge and positioning the cells to the chip wells via a pressure controller to establish a high-resistance seal and create a whole-cell recording pattern.
The voltage stimulation protocol for whole-cell patch-clamp recording of whole-cell hERG potassium currents is as follows: the cell membrane voltage clamps at −80 mV when a whole-cell closure is formed. The clamping voltage is depolarized from −80 mV to −50 mV for 0.5 s (as a leakage current detection), then steps to 30 mV for 2.5 s, and then quickly recovers to −50 mV for 4 s to excite the tail current of the hERG channel. The data were collected repeatedly every 10 s to observe the effect of the drug on the hERG tail current. −50 mV stimulation at 0.5 s was used as the leakage current detection. The test data is collected by Qpatch and stored in the connected service station.
First, the current after the effect of each drug concentration and the blank control current are normalized 0, and then the inhibition rate corresponding to each drug concentration is calculated.
Calculate the mean and standard error for each concentration and calculate the semi-inhibitory concentration for each compound using the following Formula:
Y=Bottom+(Top−Bottom)/(1+10^((LogIC50−X)*HillSlope)) The above Formula was used to fit the dose-dependent effect nonlinearly, where C represents the test substance concentration, IC50 is the semi-inhibitory concentration, and h represents the Hill coefficient. Curve fitting and IC50 calculations were performed using Graphpad software.
In general terms: Patch clamp records ionic current or voltage across a cell membrane.

Data set [1] is described as follows: In vivo pharmacokinetic evaluation in mice (IV and PO). The settings on record: CD-1 mice. As for the experimental part:
CD-1 mice, after fasting overnight (free drinking), are divided into tail vein (IV) and gavage administration (PO) groups. The tail vein administration group collected 0.1 mL of blood from the orbital venous plexus before administration and 5 minutes, 15 minutes, 0.5 hours, 1 hour, 2 hours, 4 hours, 8 hours, 12 hours, and 24 hours after administration, and sample centrifugation at 4° C. for 5 minutes, and stored at −70° C. for testing. […] The plasma parent drug concentration was determined by LC-MS/MS.

The subject of data set [2] is DSS-induced acute enteritis mouse model. Put plainly: DSS-induced acute enteritis mouse model (body weight, DAI score, colon length). The data set is classed as in vivo, C57BL/6 mice. As for the experimental part:
(§1) Grouping and modeling: One day before the start of the experiment, all C57BL/6 mice were ear-labeled and recorded, and the animals with appropriate weight and normal status were selected for grouping (Sham group, vehicle group and embodiment 33 group). 10 animals per group; 3.5% dextran sulfate sodium salt (DSS, MP, molecular weight 36000-50000) prepared with sterile water is loaded into the drinking bottle in the vehicle and the 33 testing groups of rearing cages in the embodiment (100 mL per cage, replace the 3.5% DSS solution after 2-3 days with freshly prepared solution), and the animals in the vehicle and the 33 testing groups of the embodiment are free to drink for 10 consecutive days. The Sham group drank the normal water not containing DSS. Embodiment 33 compound is administered orally BID.
1) Body Weight Change (%)=BWi/BW0×100%, BWi is the average body weight of mice in the group on a given day, BW0 is the average body weight of mice before the start of treatment.
2) DAI score: The Disease Activity Index (DAI) scoring criteria are as follows:
3) Colon length: After the last dose, all animals were euthanized with CO2 and dissected. The entire colon (anus-cecum section) was isolated, moistened with ice-cold saline, smoothed and laid flat. On the dissecting board, without applying external force to stretch, use a digital vernier caliper to measure the length of the colon and record it, and take photos for retention.

The subject of the next data set is IL-1β. Put plainly: Inflammatory factor IL-1β in serum and colon, DSS-induced acute enteritis mouse model. It is filed as in vivo, C57BL/6 mice. To be noted: 50 mpk, BID. As for the experimental part:
as §1
4) Detection of inflammatory factors: Blood was collected from all animals under their jaws, and serum was separated; serum and colon tissue IL-10 and IL-18 cytokines were detected according to the detection method in the Effect Embodiment 4.

Data set [3] can be described thus: Safety investigation, oral administration to SD rats for 14 consecutive days. To be noted: 14 days.
The mark [4] stands for this setting: 50 mpk P.O Bid, 3.5% DSS, day 11, n = 10.

pIC50: −log10 of the molar value. Marks after values point to notes of the source that are not given here.

Chain of hERG potassium channel (Q12809 whole entry): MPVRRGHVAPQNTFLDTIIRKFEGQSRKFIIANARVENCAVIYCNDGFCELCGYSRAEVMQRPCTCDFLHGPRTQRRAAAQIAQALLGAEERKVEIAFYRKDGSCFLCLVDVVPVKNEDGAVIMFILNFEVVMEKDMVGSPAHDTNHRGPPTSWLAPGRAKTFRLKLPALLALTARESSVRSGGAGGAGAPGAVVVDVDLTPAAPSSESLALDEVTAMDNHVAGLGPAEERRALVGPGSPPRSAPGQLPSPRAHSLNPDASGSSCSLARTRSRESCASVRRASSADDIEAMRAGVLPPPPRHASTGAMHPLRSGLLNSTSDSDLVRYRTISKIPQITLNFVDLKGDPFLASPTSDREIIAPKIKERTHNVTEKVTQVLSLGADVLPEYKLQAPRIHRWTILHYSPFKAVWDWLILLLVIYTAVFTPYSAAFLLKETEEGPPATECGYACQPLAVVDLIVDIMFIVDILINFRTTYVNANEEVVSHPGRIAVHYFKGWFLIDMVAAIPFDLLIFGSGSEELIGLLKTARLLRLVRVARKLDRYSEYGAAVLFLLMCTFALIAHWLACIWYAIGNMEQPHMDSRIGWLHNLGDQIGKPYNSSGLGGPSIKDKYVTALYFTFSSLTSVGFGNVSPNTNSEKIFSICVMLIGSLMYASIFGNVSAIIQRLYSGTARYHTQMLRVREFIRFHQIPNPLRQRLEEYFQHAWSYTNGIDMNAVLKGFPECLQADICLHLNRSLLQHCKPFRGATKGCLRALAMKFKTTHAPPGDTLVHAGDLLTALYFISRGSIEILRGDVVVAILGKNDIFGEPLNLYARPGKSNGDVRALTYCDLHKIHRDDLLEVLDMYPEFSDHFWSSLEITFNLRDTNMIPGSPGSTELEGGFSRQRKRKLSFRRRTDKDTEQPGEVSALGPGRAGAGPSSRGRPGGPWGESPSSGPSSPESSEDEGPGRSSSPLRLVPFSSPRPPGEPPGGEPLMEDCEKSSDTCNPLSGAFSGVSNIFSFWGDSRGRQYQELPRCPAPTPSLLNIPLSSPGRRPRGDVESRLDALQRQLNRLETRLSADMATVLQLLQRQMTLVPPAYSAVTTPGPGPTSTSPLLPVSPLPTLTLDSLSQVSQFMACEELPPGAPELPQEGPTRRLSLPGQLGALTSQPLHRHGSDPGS

In general, pIC50 refers to −log10 of the IC50, conventionally taken in molar units. A word on the AUC: it is concentration integrated over time. Low readings indicate low exposure, high ones high exposure. Broadly, the half-life is how long it takes for the measured level to halve. Usually Cmax stands for the maximum level reached in the sampled fluid or tissue. On hERG potassium channel, `Cc1nc(N[C@@H]2CCCC[C@H]2O)nnc1-c1ccc(C(F)(F)F)cc1O` [Embodiment 33] had a negative-log IC50 (pIC50) of under 4.52. In data set [1] (PO, 20 mg/kg), this molecule came in with an F of 98.0%. Further, in data set [1] (mouse, plasma, IV, 3 mg/kg), the exposure (AUC) came out at 4600 ng·h/mL, the clearance was 10.9 mL/min/kg and the half-life is 4.89 h. Moreover, the Vd in data set [1] (mouse, plasma, IV, 3 mg/kg, read-out: Vss) was 2.6 L/kg. In data set [1] (mouse, plasma, PO, 20 mg/kg), the area under the curve (AUC) is 30000 ng·h/mL, the Cmax came to 8520 ng/mL and the half-life is 3.6 h. Moreover, the “curative effect on animals with DSS-induced acute enteritis (IBD)” value in data set [2] (50mpk P.O Bid) is “significant curative effect”. Also, in data set [2] (setting [4]), the “Day 11 weight change (%)” value was found to be 88.09% and the “Rate of body weight loss (%)” value stood at 11.91%**. This molecule also had a DAI score in data set [2] (50 mpk P.O Bid, Day 3) of 0.00. The molecule further displayed a DAI score in data set [2] (50 mpk P.O Bid, Day 5) of 2.60 ± 0.45. Also, the DAI score in data set [2] (50 mpk P.O Bid, Day 7) is given as 4.40 ± 0.6. In data set [2] (50 mpk P.O Bid, Day 9), this molecule yielded a DAI score of 6.20 ± 0.68. For the same molecule, the DAI score in data set [2] (50 mpk P.O Bid, Day 11) is listed as 7.80 ± 0.63. The Colon length in data set [2] (50 mpk P.O Bid, after the last dose, n = 10) was 58.27 ± 1.48 mm. In the data set with IL-1β, the IL-1β in serum is 290.3 ± 30.65 and the “IL-1β in the colon” value is reported as 6.018 ± 0.9675. In data set [3], the “dose without any toxic effects” value was at most 2000 mg/kg.
